Data published in ChEMBL document CHEMBL4840352 (J Med Chem, 2021).
Activity calls are given as the source filed them. The calls are words filed in the database; no cut-off is given here.

Tests used:
MOLM-13 [1] = assay: Antiproliferative activity against human MOLM-13 cells incubated for 48 hrs by CCK-8 assay; format: functional, cell-based; details: MOLM-13, 48 h
MV4-11 [2] = assay: Antiproliferative activity against human MV4-11 cells incubated for 48 hrs by CCK-8 assay; format: functional, cell-based; details: MV4-11, 48 h
MV4-11 [3] = assay: Induction of apoptosis in human MV4-11 cells assessed as downregulation of Mcl-1 level at 15 nM measured upto 12 hrs by Western blot analysis; format: functional, cell-based; details: time hrs <=12
[4] = target: Mast/stem cell growth factor receptor Kit (Homo sapiens) (UniProt P10721); assay: Induction of KIT degradation in human MOLM-13 cells at 0 to 25 nM after 24 hrs by Western blot analysis; format: cell-based; details: dose 0-25 nM
Chain of Mast/stem cell growth factor receptor Kit (Homo sapiens) (P10721 whole entry): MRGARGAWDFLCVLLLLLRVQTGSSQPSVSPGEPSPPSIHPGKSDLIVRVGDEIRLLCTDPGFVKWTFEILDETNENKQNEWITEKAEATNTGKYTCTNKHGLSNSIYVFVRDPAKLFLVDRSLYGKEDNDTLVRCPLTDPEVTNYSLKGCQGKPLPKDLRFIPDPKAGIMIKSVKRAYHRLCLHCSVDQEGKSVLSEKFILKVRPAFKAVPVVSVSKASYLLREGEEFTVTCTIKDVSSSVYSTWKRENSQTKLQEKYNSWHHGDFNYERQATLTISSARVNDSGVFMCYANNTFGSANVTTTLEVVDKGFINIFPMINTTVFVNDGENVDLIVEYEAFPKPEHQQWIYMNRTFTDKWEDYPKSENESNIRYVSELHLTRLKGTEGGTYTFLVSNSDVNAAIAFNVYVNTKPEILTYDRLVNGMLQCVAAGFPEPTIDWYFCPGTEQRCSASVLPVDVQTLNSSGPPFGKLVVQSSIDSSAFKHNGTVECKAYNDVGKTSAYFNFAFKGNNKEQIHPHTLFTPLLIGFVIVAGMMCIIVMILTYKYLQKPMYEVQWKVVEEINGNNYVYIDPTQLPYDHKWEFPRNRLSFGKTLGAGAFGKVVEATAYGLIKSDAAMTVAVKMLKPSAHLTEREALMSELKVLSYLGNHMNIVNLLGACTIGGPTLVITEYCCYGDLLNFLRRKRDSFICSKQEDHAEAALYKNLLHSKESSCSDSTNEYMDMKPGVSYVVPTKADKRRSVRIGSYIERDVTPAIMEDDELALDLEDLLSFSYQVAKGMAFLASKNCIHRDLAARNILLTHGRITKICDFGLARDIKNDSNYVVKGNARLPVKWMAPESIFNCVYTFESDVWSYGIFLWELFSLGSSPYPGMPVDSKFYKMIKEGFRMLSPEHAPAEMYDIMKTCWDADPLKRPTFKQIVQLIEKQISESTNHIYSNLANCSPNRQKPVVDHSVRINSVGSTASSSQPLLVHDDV

[5] = target: Receptor-type tyrosine-protein kinase FLT3 (Homo sapiens) (UniProt P36888); assay: Inhibition of FLT3 in human MV4-11 cells assessed as reduction in AKT phosphorylation at 15 nM by Western blot analysis; format: cell-based; details: time 0-12 hrs, TDE = time-dependent effect
Chain of Receptor-type tyrosine-protein kinase FLT3 (Homo sapiens) (P36888 whole entry): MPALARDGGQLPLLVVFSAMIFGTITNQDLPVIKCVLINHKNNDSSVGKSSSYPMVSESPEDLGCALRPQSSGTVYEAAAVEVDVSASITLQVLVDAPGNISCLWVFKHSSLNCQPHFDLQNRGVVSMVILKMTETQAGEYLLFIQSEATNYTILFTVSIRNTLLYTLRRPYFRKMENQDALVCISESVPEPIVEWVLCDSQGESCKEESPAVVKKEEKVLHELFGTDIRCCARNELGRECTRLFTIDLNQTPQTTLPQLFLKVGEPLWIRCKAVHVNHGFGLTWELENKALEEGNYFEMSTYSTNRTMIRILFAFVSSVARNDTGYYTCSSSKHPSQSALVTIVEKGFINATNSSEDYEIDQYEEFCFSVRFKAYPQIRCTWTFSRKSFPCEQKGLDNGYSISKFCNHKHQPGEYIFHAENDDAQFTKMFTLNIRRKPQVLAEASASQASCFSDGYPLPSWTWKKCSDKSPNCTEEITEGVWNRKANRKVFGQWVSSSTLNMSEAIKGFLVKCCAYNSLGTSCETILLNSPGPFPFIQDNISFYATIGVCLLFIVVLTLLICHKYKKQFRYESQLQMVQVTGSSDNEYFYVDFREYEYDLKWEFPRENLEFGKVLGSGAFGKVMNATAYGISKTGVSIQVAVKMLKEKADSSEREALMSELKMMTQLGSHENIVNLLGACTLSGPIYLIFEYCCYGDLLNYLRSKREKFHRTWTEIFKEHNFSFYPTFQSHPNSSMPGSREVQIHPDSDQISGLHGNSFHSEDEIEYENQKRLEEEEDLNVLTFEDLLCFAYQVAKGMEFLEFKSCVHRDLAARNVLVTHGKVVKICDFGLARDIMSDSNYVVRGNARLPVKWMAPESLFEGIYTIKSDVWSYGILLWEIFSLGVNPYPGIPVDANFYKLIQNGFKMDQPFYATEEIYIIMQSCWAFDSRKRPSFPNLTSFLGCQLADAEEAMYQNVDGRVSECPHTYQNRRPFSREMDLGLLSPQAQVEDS

[6] = system: Receptor-type tyrosine-protein kinase FLT3 (Homo sapiens), P36888 [UNDEFINED MUTATION]; assay: Induction of FLT3-ITD degradation in human MV4-11 cells at 20 nM pretreated with pomalidomide for 2 hrs followed compound addition for 6 hrs by Western blot analysis; format: cell-based
Chain of Receptor-type tyrosine-protein kinase FLT3 (Homo sapiens), P36888 [UNDEFINED MUTATION] (P36888 whole entry, looked up, change not shown): as the sequence (P36888 whole entry) above

[7] = target: Mast/stem cell growth factor receptor Kit (Homo sapiens) (UniProt P10721); assay: Inhibition of KIT in human MOLM-13 cells assessed as reduction in STAT3 phosphorylation at 5 to 25 nM after 24 hrs by Western blot analysis; format: cell-based; details: dose 5-25 nM
[8] = system: Receptor-type tyrosine-protein kinase FLT3 (Homo sapiens), P36888 [UNDEFINED MUTATION]; assay: Induction of FLT3-ITD degradation in human MOLM-13 cells after 24 hrs by Western blot analysis; format: cell-based
[9] = target: Receptor-type tyrosine-protein kinase FLT3 (Homo sapiens) (UniProt P36888); assay: Inhibition of FLT3 in human MOLM-13 cells assessed as reduction in AKT phosphorylation at 15 nM by Western blot analysis; format: cell-based; details: time 0-12 hrs, TDE = time-dependent effect
[10] = target: Receptor-type tyrosine-protein kinase FLT3 (Homo sapiens) (UniProt P36888); assay: Inhibition of FLT3 in human MOLM-13 cells assessed as reduction in FLT3 phosphorylation at 15 nM by Western blot analysis; format: cell-based; details: time 0-12 hrs, TDE = time-dependent effect
MOLM-13 [11] = assay: Induction of apoptosis in human MOLM-13 cells assessed as downregulation of Mcl-1 level at 15 nM measured upto 12 hrs by Western blot analysis; format: functional, cell-based; details: time hrs <=12
[12] = system: Receptor-type tyrosine-protein kinase FLT3 (Homo sapiens), P36888 [UNDEFINED MUTATION]; assay: Induction of FLT3-ITD degradation in human MV4-11 cells at 20 nM pretreated with MG132 for 2 hrs followed compound addition for 6 hrs by Western blot analysis; format: cell-based
[13] = target: Receptor-type tyrosine-protein kinase FLT3 (Homo sapiens) (UniProt P36888); assay: Inhibition of FLT3 in human MV4-11 cells assessed as reduction in FLT3 phosphorylation at 15 nM by Western blot analysis; format: cell-based; details: time 0-12 hrs, TDE = time-dependent effect
MOLM-13 [14] = assay: Reduction in intracellular ROS level in human MOLM-13 cells measured after 12 hrs by DCFH-DA probe based flow cytometry; format: functional, cell-based; details: dose 25-200 nM
[15] = target: Receptor-type tyrosine-protein kinase FLT3 (Homo sapiens) (UniProt P36888); assay: Inhibition of FLT3 in human MV4-11 cells assessed as reduction in STAT5 phosphorylation at 15 nM by Western blot analysis; format: cell-based; details: time 0-12 hrs, TDE = time-dependent effect
MV4-11 [16] = assay: Antitumor activity against human MV4-11 cells xenografted in NOD/SCID mouse assessed as reduction in CD45-positive cells in bone marrow at 3 mg/kg/day, iv administered for 12 days by flow cytometry analysis (reference value: 32.23 %); format: functional; design: scale not given: the % may be the effect or the level left; details: time 12 day
[17] = system: Receptor-type tyrosine-protein kinase FLT3 (Homo sapiens), P36888 [UNDEFINED MUTATION]; assay: Induction of FLT3-ITD degradation in human MV4-11 cells at 20 nM pretreated with dov for 2 hrs followed compound addition for 6 hrs by Western blot analysis; format: cell-based
MOLM-13 [18] = assay: Induction of apoptosis in human MOLM-13 cells assessed as upregulation of cleaved caspase-3 level at 15 nM by Western blot analysis; format: functional, cell-based; details: time 0-12 hrs, TDE = time-dependent effect
MV4-11 [19] = assay: Induction of apoptosis in human MV4-11 cells after 48 hrs by Annexin-V/PI staining based flow cytometry; format: functional, cell-based; details: dose 1.25-10 nM
[20] = target: Mast/stem cell growth factor receptor Kit (Homo sapiens) (UniProt P10721); assay: Inhibition of KIT in human MOLM-13 cells assessed as reduction in PI3K phosphorylation at 5 to 25 nM after 24 hrs by Western blot analysis; format: cell-based; details: dose 5-25 nM
MOLM-13 [21] = assay: Induction of apoptosis in human MOLM-13 cells after 48 hrs by Annexin-V/PI staining based flow cytometry; format: functional, cell-based; details: dose 1.25-10 nM
[22] = target: Mast/stem cell growth factor receptor Kit (Homo sapiens) (UniProt P10721); assay: Induction of KIT degradation in human MV4-11 cells at 0 to 25 nM after 24 hrs by Western blot analysis; format: cell-based; details: dose 0-25 nM
[23] = target: Receptor-type tyrosine-protein kinase FLT3 (Homo sapiens) (UniProt P36888); assay: Inhibition of FLT3 in human MOLM-13 cells assessed as reduction in ERK phosphorylation at 15 nM by Western blot analysis; format: cell-based; details: time 0-12 hrs, TDE = time-dependent effect
[24] = system: Receptor-type tyrosine-protein kinase FLT3 (Homo sapiens), P36888 [UNDEFINED MUTATION]; assay: Induction of FLT3-ITD degradation in human MV4-11 cells after 24 hrs by Western blot analysis; format: cell-based
[25] = target: Platelet-derived growth factor receptor beta (Homo sapiens) (UniProt P09619); assay: Induction of PDGFR degradation in human MV4-11 cells at 0 to 25 nM after 24 hrs by Western blot analysis; format: cell-based; details: dose 0-25 nM
Chain of Platelet-derived growth factor receptor beta (Homo sapiens) (P09619 whole entry): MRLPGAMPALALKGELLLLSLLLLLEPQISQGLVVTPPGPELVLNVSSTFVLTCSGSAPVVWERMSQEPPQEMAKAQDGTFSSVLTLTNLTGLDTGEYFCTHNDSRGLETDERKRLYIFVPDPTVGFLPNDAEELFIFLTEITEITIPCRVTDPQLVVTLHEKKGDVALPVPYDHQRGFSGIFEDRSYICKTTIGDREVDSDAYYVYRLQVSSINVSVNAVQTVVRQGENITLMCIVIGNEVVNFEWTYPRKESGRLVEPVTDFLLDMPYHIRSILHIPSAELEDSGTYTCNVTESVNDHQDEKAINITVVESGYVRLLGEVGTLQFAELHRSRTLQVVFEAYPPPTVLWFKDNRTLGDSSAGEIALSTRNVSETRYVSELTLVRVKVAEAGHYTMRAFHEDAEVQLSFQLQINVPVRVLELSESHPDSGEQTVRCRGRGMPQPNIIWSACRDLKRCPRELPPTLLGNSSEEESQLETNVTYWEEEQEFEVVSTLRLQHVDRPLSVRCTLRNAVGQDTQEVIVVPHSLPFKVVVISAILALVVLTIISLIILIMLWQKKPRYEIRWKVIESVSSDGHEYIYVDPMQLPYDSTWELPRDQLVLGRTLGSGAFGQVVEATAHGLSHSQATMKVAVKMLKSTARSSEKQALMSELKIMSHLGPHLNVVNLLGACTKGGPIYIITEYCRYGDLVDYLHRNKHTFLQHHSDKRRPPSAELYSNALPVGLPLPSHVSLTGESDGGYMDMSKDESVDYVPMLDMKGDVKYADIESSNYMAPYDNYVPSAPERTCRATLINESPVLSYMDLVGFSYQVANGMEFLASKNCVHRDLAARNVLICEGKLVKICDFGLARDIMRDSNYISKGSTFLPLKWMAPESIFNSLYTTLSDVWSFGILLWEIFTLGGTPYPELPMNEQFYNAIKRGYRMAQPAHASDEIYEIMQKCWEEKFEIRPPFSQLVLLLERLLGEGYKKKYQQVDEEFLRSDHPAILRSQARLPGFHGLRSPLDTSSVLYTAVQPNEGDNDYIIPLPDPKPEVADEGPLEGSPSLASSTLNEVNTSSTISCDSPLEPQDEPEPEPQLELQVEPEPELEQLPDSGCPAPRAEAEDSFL

[26] = target: Receptor-type tyrosine-protein kinase FLT3 (Homo sapiens) (UniProt P36888); assay: Inhibition of FLT3 in human MOLM-13 cells assessed as reduction in STAT5 phosphorylation at 15 nM by Western blot analysis; format: cell-based; details: time 0-12 hrs, TDE = time-dependent effect
[27] = target: Platelet-derived growth factor receptor beta (Homo sapiens) (UniProt P09619); assay: Induction of PDGFR degradation in human MOLM-13 cells at 0 to 25 nM after 24 hrs by Western blot analysis; format: cell-based; details: dose 0-25 nM
[28] = target: Receptor-type tyrosine-protein kinase FLT3 (Homo sapiens) (UniProt P36888); assay: Inhibition of FLT3 in human MV4-11 cells assessed as reduction in ERK phosphorylation at 15 nM by Western blot analysis; format: cell-based; details: time 0-12 hrs, TDE = time-dependent effect
MOLM-13 [29] = assay: Induction of apoptosis in human MOLM-13 cells assessed as downregulation of Bcl-2 level at 15 nM measured upto 12 hrs by Western blot analysis; format: functional, cell-based; details: time hrs <=12
MV4-11 [30] = assay: Induction of apoptosis in human MV4-11 cells assessed as upregulation of cleaved caspase-3 level at 15 nM by Western blot analysis; format: functional, cell-based; details: time 0-12 hrs, TDE = time-dependent effect
MV4-11 [31] = assay: Induction of apoptosis in human MV4-11 cells assessed as downregulation of Bcl-2 level at 15 nM measured upto 12 hrs by Western blot analysis; format: functional, cell-based; details: time hrs <=12
[32] = system: Receptor-type tyrosine-protein kinase FLT3 (Homo sapiens), P36888 [UNDEFINED MUTATION]; assay: Induction of FLT3-ITD degradation in human MV4-11 cells assessed as accumulation of ubiquitinated FLT3-ITD at 15 nM preincubated for 4 hrs followed by MG132 addition for 2 hrs by immunoprecipitation assay; format: cell-based; details: time 6.0 hrs
[33] = Toxicity in NOD/SCID mouse xenografted with human MV4-11 cells assessed as effect on body weight at 3 mg/kg/day, iv administered for 12 hrs; format: organism-based; details: in vivo
[34] = target: Mast/stem cell growth factor receptor Kit (Homo sapiens) (UniProt P10721); assay: Inhibition of KIT in human MV4-11 cells assessed as reduction in STAT3 phosphorylation at 5 to 25 nM after 24 hrs by Western blot analysis; format: cell-based; details: dose 5-25 nM
MV4-11 [35] = assay: Reduction in intracellular ROS level in human MV4-11 cells measured after 12 hrs by DCFH-DA probe based flow cytometry; format: functional, cell-based; details: dose 25-200 nM
[36] = target: Mast/stem cell growth factor receptor Kit (Homo sapiens) (UniProt P10721); assay: Inhibition of KIT in human MV4-11 cells assessed as reduction in PI3K phosphorylation at 5 to 25 nM after 24 hrs by Western blot analysis; format: cell-based; details: dose 5-25 nM

Cc1ncsc1-c1ccc(CNC(=O)[C@H]2C[C@H](O)CN2C(=O)[C@H](NC(=O)CCCCC(=O)N2CCN(c3ccc4[nH]c(-c5c(N)c6c(F)cccc6[nH]c5=O)nc4c3)CC2)C(C)(C)C)cc1
IC50 (MOLM-13 [1]): 185 nM
IC50 (MV4-11 [2]): 415 nM

Nc1c(-c2nc3cc(N4CCN(C(=O)CCCC#Cc5cccc6c5C(=O)N(C5CCC(=O)NC5=O)C6=O)CC4)ccc3[nH]2)c(=O)[nH]c2cccc(F)c12 (stereo not given)
IC50 (MOLM-13 [1]): 93.7 nM
IC50 (MV4-11 [2]): 424 nM

Nc1c(-c2nc3cc(N4CCN(CCCCC(=O)Nc5cccc6c5CN(C5CCC(=O)NC5=O)C6=O)CC4)ccc3[nH]2)c(=O)[nH]c2cccc(F)c12 (stereo not given)
IC50 (MOLM-13 [1]): 751 nM
IC50 (MV4-11 [2]): > 1000 nM

Nc1c(-c2nc3cc(N4CCN(C(=O)CCCCNc5cccc6c5C(=O)N(C5CCC(=O)NC5=O)C6=O)CC4)ccc3[nH]2)c(=O)[nH]c2cccc(F)c12 (stereo not given)
Activity (MV4-11 [3]): Active
IC50 (MOLM-13 [1]): 10.1 nM
Activity [4]: Active
IC50 (MV4-11 [2]): 18.7 nM
inhibition [5]: Tde
Activity [6]: inactive
inhibition [7]: Active
Activity [8]: Dose-Dependent Effect
inhibition [9]: Tde
inhibition [10]: Tde
Activity (MOLM-13 [11]): Active
Activity [12]: inactive
inhibition [13]: Tde
Activity (MOLM-13 [14]): Dose-Dependent Effect
inhibition [15]: Tde
Activity (MV4-11 [16]): 5.25%
Activity [17]: inactive
Activity (MOLM-13 [18]): Tde
Activity (MV4-11 [19]): Dose-Dependent Effect
inhibition [20]: Active
Activity (MOLM-13 [21]): Dose-Dependent Effect
Activity [22]: Active
inhibition [23]: Tde
Activity [24]: Dose-Dependent Effect
Activity [25]: Active
inhibition [26]: Tde
Activity [27]: Active
inhibition [28]: Tde
Activity (MOLM-13 [29]): Active
Activity (MV4-11 [30]): Tde
Activity (MV4-11 [31]): Active
Activity [32]: Active
Activity [33]: Non-Toxic
inhibition [34]: Active
Activity (MV4-11 [35]): Dose-Dependent Effect
inhibition [36]: Active

Nc1c(-c2nc3cc(N4CCN(CCCC(=O)Nc5cccc6c5C(=O)N(C5CCC(=O)NC5=O)C6=O)CC4)ccc3[nH]2)c(=O)[nH]c2cccc(F)c12 (stereo not given)
IC50 (MOLM-13 [1]): 419 nM
IC50 (MV4-11 [2]): 739 nM

Nc1c(-c2nc3cc(N4CCN(CCCCCC(=O)Nc5cccc6c5C(=O)N(C5CCC(=O)NC5=O)C6=O)CC4)ccc3[nH]2)c(=O)[nH]c2cccc(F)c12 (stereo not given)
IC50 (MOLM-13 [1]): > 1000 nM
IC50 (MV4-11 [2]): 557 nM

Nc1c(-c2nc3cc(N4CCN(CCCCCCC(=O)Nc5cccc6c5C(=O)N(C5CCC(=O)NC5=O)C6=O)CC4)ccc3[nH]2)c(=O)[nH]c2cccc(F)c12 (stereo not given)
IC50 (MOLM-13 [1]): > 1000 nM
IC50 (MV4-11 [2]): 418 nM

Nc1c(-c2nc3cc(N4CCN(C(=O)CCCCCCNc5cccc6c5C(=O)N(C5CCC(=O)NC5=O)C6=O)CC4)ccc3[nH]2)c(=O)[nH]c2cccc(F)c12 (stereo not given)
IC50 (MOLM-13 [1]): 130 nM
IC50 (MV4-11 [2]): 416 nM
